Reference: patent US4448962A, “Substituted quinoline carboxylic acid derivatives” (Kyorin Seiyaku Kabushiki Kaisha, priority 1978, dated 1984)
Converted amounts (≈) assume the structure as drawn. Counter-ions that a name gives are not always drawn. Like-named read-outs stand apart in the source and are kept apart here.

What was measured:
Assay in all cases: Antibacterial spectrum (Minimum Inhibitory Concentration)
Assay type in all cases: cell-based
[1] = test system: Bacillus subtilis PCI 219
Excerpt: (§1) The antibacterial tests were done according to the method authorized by the Chemotherapeutic Society of Japan.

E. coli ATCC 10536 = conditions: Escherichia coli
Excerpt: as §1

[2] = test system: Escherichia coli NIHJ JC-2
Excerpt: as §1

[3] = test system: Klebsiella pneumoniae IFO 3512
Excerpt: as §1

Pr. vulgaris XK Denken = conditions: Proteus vulgaris, read-out: Minimum Inhibitory Concentration
Excerpt: as §1

[4] = test system: Proteus vulgaris IFO 3167
Excerpt: as §1

Ps. aeruginosa IFO 12689 = conditions: Pseudomonas aeruginosa
Excerpt: as §1

[5] = test system: Pseudomonas aeruginosa V-1
Excerpt: as §1

Sta. aureus ATCC 14775 = conditions: Staphylococcus aureus
Excerpt: as §1

[6] = test system: Staphylococcus aureus 209P; conditions: read-out: Minimum Inhibitory Concentration
Excerpt: as §1

[7] = PCI219, Bacillus subtilis PCI 219, Gram +, read-out: Minimum Inhibitory Concentration
[8] = ATCC10536, E. coli ATCC 10536, Gram -, read-out: Minimum Inhibitory Concentration
[9] = NIHJJC2, Escherichia coli NIHJ JC-2, Gram -, read-out: Minimum Inhibitory Concentration
[10] = IFO3512, Klebsiella pneumoniae IFO 3512, Gram -, read-out: Minimum Inhibitory Concentration
[11] = IFO3167, Proteus vulgaris IFO 3167, Gram -, read-out: Minimum Inhibitory Concentration
[12] = IFO12689, Ps. aeruginosa IFO 12689, Gram -, read-out: Minimum Inhibitory Concentration
[13] = V1, Pseudomonas aeruginosa V-1, Gram -, read-out: Minimum Inhibitory Concentration
[14] = ATCC14775, Sta. aureus ATCC 14775, Gram +, read-out: Minimum Inhibitory Concentration
[15] = Staphylococcus aureus 209P, Gram +
[16] = Bacillus subtilis, PCI219, read-out: Minimum Inhibitory Concentration
[17] = ATCC10536, read-out: Minimum Inhibitory Concentration
[18] = Escherichia coli, NIHJJC2, read-out: Minimum Inhibitory Concentration
[19] = Klebsiella pneumoniae, IFO3512, read-out: Minimum Inhibitory Concentration
[20] = Proteus vulgaris, IFO3167, read-out: Minimum Inhibitory Concentration
[21] = IFO12689, read-out: Minimum Inhibitory Concentration
[22] = Pseudomonas aeruginosa, V1, read-out: Minimum Inhibitory Concentration
[23] = ATCC14775, read-out: Minimum Inhibitory Concentration

| Structure (SMILES) | MIC [1, 7] | MIC (E. coli ATCC 10536; [8]) | MIC [2, 9] | MIC [3, 10] | MIC (Pr. vulgaris XK Denken; Pr. vulgaris XK Denken, Gram -) | MIC [4, 11] | MIC (Ps. aeruginosa IFO 12689; [12]) | MIC [5, 13] | MIC (Sta. aureus ATCC 14775; [14]) | MIC [6, 15] | MIC [1, 16] | MIC (E. coli ATCC 10536; [17]) | MIC [2, 18] | MIC [3, 19] | MIC (Pr. vulgaris XK Denken) | MIC [4, 20] | MIC (Ps. aeruginosa IFO 12689; [21]) | MIC [5, 22] | MIC (Sta. aureus ATCC 14775; [23]) | MIC ([6]; Staphylococcus aureus, 209P) |
| --- | --- | --- | --- | --- | --- | --- | --- | --- | --- | --- | --- | --- | --- | --- | --- | --- | --- | --- | --- | --- |
| CCOC(=O)c1cn(CC)c2cc(N3CCNCC3)c(F)cc2c1=O [Example 17, 1-ethyl-6-fluoro-7-(1-piperazinyl)-4-oxo-1,4-dihydroquinoline-3-carboxylicacid ethyl ester] | 50 µg/mL (≈ 144 µM) | 6.25 µg/mL (≈ 18 µM) | 12.5 µg/mL (≈ 36 µM) | 6.25 µg/mL (≈ 18 µM) | 25 µg/mL (≈ 72 µM) | 12.5 µg/mL (≈ 36 µM) | > 100 µg/mL | 50 µg/mL (≈ 144 µM) | 100 µg/mL (≈ 288 µM) | 50 µg/mL (≈ 144 µM) | – | – | – | – | – | – | – | – | – | – |
| Cl.Cn1cc(C(=O)O)c(=O)c2cc(F)c(N3CCNCC3)cc21 [Example 18, 1-methyl-6-fluoro-7-(1-piperazinyl)-4-oxo-1,4-dihydroquinoline-3-carboxylic acid hydrochloride] | – | – | – | – | – | – | – | – | – | – | 0.78 µg/mL | 0.39 µg/mL | 0.39 µg/mL | 0.39 µg/mL | 1.56 µg/mL | 0.39 µg/mL | 3.13 µg/mL | 1.56 µg/mL | 12.5 µg/mL | 6.25 µg/mL |
| CCCn1cc(C(=O)O)c(=O)c2cc(F)c(N3CCNCC3)cc21 [Example 19, 1-propyl-6-fluoro-7-(1-piperazinyl)-4-oxo-1,4-dihydroquinoline-3-carboxylic acid hydrochloride] | 0.39 µg/mL | 0.39 µg/mL | 0.2 µg/mL | 0.2 µg/mL | 0.39 µg/mL | 0.2 µg/mL | 12.5 µg/mL | 3.13 µg/mL | 3.13 µg/mL | 1.56 µg/mL | – | – | – | – | – | – | – | – | – | – |
| O=C(O)c1cn(Cc2ccccc2)c2cc(N3CCNCC3)c(F)cc2c1=O [Example 20, 1-benzyl-6-fluoro-1,4-dihydro-4-oxo-7-(1-piperazinyl)-quinoline-3-carboxylic acid] | 0.78 µg/mL (≈ 2.05 µM) | 0.39 µg/mL (≈ 1.02 µM) | 0.78 µg/mL (≈ 2.05 µM) | 0.39 µg/mL (≈ 1.02 µM) | 0.78 µg/mL (≈ 2.05 µM) | 0.39 µg/mL (≈ 1.02 µM) | – | 1.56 µg/mL (≈ 4.09 µM) | 6.25 µg/mL (≈ 16.4 µM) | 1.56 µg/mL (≈ 4.09 µM) | – | – | – | – | – | – | 6.25 µg/mL (≈ 16.4 µM) | – | – | – |
| C=CCn1cc(C(=O)O)c(=O)c2cc(F)c(N3CCNCC3)cc21 [Example 21, hydrochloride] | 0.78 µg/mL | 0.2 µg/mL | 0.2 µg/mL | 0.2 µg/mL | 0.39 µg/mL | 0.2 µg/mL | – | 1.56 µg/mL | 6.25 µg/mL | 3.13 µg/mL | – | – | – | – | – | – | 6.25 µg/mL | – | – | – |
| CCn1cc(C(=O)O)c(=O)c2cc(F)c(N3CCN(N=O)CC3)cc21 [Example 24, 1-ethyl-6-fluoro-7-(4-nitroso-1-piperazinyl)-4-oxo-1,4-dihydroquinoline-3-carboxylic acid] | 0.39 µg/mL (≈ 1.12 µM) | 0.39 µg/mL (≈ 1.12 µM) | 0.39 µg/mL (≈ 1.12 µM) | 0.39 µg/mL (≈ 1.12 µM) | 0.39 µg/mL (≈ 1.12 µM) | 0.39 µg/mL (≈ 1.12 µM) | 6.25 µg/mL (≈ 17.9 µM) | 3.13 µg/mL (≈ 8.99 µM) | 0.78 µg/mL (≈ 2.24 µM) | 0.39 µg/mL (≈ 1.12 µM) | – | – | – | – | – | – | – | – | – | – |
| Cl.O=C(O)c1cn(CCO)c2cc(N3CCNCC3)c(F)cc2c1=O [Example 25, 1-(2-hydroxyethyl)-6-fluoro-7-(1-piperazinyl)-4-oxo-1,4-dihydroquinoline-3-carboxylic acid hydrochloride] | – | – | – | – | – | – | – | – | – | – | 1.56 µg/mL | 0.2 µg/mL | 0.39 µg/mL | 0.05 µg/mL | 3.13 µg/mL | 0.2 µg/mL | > 25 µg/mL | 3.13 µg/mL | > 25 µg/mL | 1.56 µg/mL |
| CC(=O)N1CCN(c2cc3c(cc2F)c(=O)c(C(=O)O)cn3CCO)CC1 [Example 26, 1-(2-hydroxyethyl)-6-fluoro-7-(4-acetyl-1-piperazinyl)-4-oxo-1,4-dihydroquinoline-3-carboxylic acid] | 12.5 µg/mL (≈ 33.1 µM) | 25 µg/mL (≈ 66.2 µM) | > 25 µg/mL | 6.25 µg/mL (≈ 16.6 µM) | > 25 µg/mL | > 25 µg/mL | > 25 µg/mL | > 25 µg/mL | > 25 µg/mL | > 25 µg/mL | – | – | – | – | – | – | – | – | – | – |
| CCn1cc(C(=O)O)c(=O)c2cc(F)c(N3CCN(C(C)=O)CC3)cc21 [Example 29, 1-ethyl-6-fluoro-1,4-dihydro-4-oxo-7-(4-acetyl-1-piperazinyl)quinoline-3-carboxylic acid] | 0.2 µg/mL (≈ 0.553 µM) | 1.56 µg/mL (≈ 4.32 µM) | 1.56 µg/mL (≈ 4.32 µM) | < 0.1 µg/mL | 1.56 µg/mL (≈ 4.32 µM) | 0.39 µg/mL (≈ 1.08 µM) | 25 µg/mL (≈ 69.2 µM) | 25 µg/mL (≈ 69.2 µM) | 1.56 µg/mL (≈ 4.32 µM) | 0.78 µg/mL (≈ 2.16 µM) | – | – | – | – | – | – | – | – | – | – |
